Assays:
[1] = tested on: lincomycin monoclonal antibody prepared from hapten LIN-S1; assay: Cross reaction (specificity) of the monoclonal antibody prepared from hapten LIN-S1; type: binding, mouse; conditions: antibody from hapten scheme LIN-S1; lincomycin = 100%
Protocol: (§1) When the mouse serum titer is determined as high, the spleen cells are collected and fused with SP2/0 myeloma cells at an amount ratio of 7:1. The cell supernatant is detected by indirect competitive ELISA for screening the positive wells. The cells in the positive wells are cloned via limiting dilution method until a hybridoma cell secreting monoclonal antibody is obtained. The 50% inhibitory concentration and specificity of the monoclonal antibodies prepared from the two hapten schemes above are detected.

[2] = tested on: monoclonal antibody prepared from hapten LIN-S2; assay: Cross reaction (specificity) of the monoclonal antibody prepared from hapten LIN-S2; type: binding, mouse; conditions: antibody from hapten scheme LIN-S2; lincomycin = 100%
Protocol: as §1

SMILES	Cross reaction [1]	Cross reaction [2]
CC[C@H]1OC(=O)[C@H](C)[C@@H](O[C@H]2C[C@@](C)(OC)[C@@H](O)[C@H](C)O2)[C@H](C)[C@@H](O[C@@H]2O[C@H](C)C[C@H](N(C)C)[C@H]2O)[C@](C)(O)C[C@@H](C)C(=O)[C@H](C)[C@@H](O)[C@]1(C)O [Erythromycin]	<1%	<1%
CC[C@H]1OC(=O)C[C@@H](O)[C@H](C)[C@@H](O[C@@H]2O[C@H](C)[C@@H](O[C@H]3C[C@@](C)(O)[C@@H](O)[C@H](C)O3)[C@H](N(C)C)[C@H]2O)[C@@H](CC=O)C[C@@H](C)C(=O)/C=C/C(C)=C/[C@@H]1CO[C@@H]1O[C@H](C)[C@@H](O)[C@@H](OC)[C@H]1OC [Tylosin]	<1%	<1%
[H]/N=C(/N)N[C@H]1[C@H](O)[C@@H](O)[C@H](O[C@@H]2O[C@@H](C)[C@](O)(C=O)[C@H]2O[C@@H]2O[C@@H](CO)[C@H](O)[C@@H](O)[C@@H]2NC)[C@@H](N/C(N)=N\[H])[C@@H]1O [Streptomycin]	<1%	9.2%
CCC[C@@H]1C[C@@H](C(=O)N[C@@H]([C@H]2O[C@H](SC)[C@H](O)[C@@H](O)[C@H]2O)[C@@H](C)O)N(C)C1 [Lincomycin]	100%	100%

Source: US8507214B2, “Elisa kit for detecting lincomycin” (Beijing Kwinbon Biotechnology Co., Ltd., priority 2008, dated 2013)
